Reference: patent publication US20250092056A1, “URACIL DERIVATIVES HAVING VIRUS REPLICATION INHIBITORY ACTIVITY AND PHARMACEUTICAL COMPOSITION COMPRISING THE SAME” (Shionogi & Co., Ltd., priority 2022, published 2025)
Like-named read-outs stand apart in the source and are kept apart here.

Legend:
[1] = molecular target: Recombinant SARS-CoV-2 3CL Protease (Severe acute respiratory syndrome coronavirus 2 (2019-nCoV) (SARS-CoV-2), UniProt P0DTD1); assay: biochemical; format: biochemical; settings: 50% SARS-CoV-2 3CL protease inhibitory concentration; read-out: IC50
SARS-CoV-2 = assay: Cytopathic effect (CPE) suppression effect confirmation test using HEK293T/ACE2-TMPRSS2 cells; format: cell-based; settings: Severe acute respiratory syndrome coronavirus 2, HEK-293T
[2] = 50% SARS-CoV-2 infected cell death inhibitory concentration, HEK293T/ACE2-TMPRSS2 cells, read-out: EC50
[3] = 72 h, HEK293T/ACE2-TMPRSS2 cells, CPE suppression, CellTiter-Glo 2.0 after 3 days culture, read-out: EC50 (50% SARS-CoV-2 infected cell death inhibitory concentration), class
[4] = 72 h, read-out: EC50 (50% SARS-CoV-2 infected cell death inhibitory concentration), HEK293T/ACE2-TMPRSS2 cells, CPE suppression, CellTiter-Glo 2.0 after 3 days culture
[5] = 72 h, read-out: EC50 (50% SARS-CoV-2 infected cell death inhibitory concentration), class, HEK293T/ACE2-TMPRSS2 cells, CPE suppression, CellTiter-Glo 2.0 after 3 days culture

SMILES	IC50 [1] [µM]	EC50 (SARS-CoV-2; [2]) [µM]	EC50 (SARS-CoV-2; [3]) [µM]	EC50 (SARS-CoV-2; [4]) [µM]	EC50 (SARS-CoV-2; [5]) [µM]
N#CCn1c(-c2ccc(F)nc2)c(-c2ccc(F)c(Cl)c2)c(=O)n(-c2cncc(Cl)c2)c1=O [Compound I-385]	< 0.01	< 0.1	–	–	–
N#CCn1c(N2CC(O)(c3ncccn3)C2)c(-c2ccc(F)c(Cl)c2)c(=O)n(-c2cncc(OC(F)F)n2)c1=O [Compound I-378]	< 0.01	< 0.1	–	–	–
Cc1cncc(-n2c(=O)c(C(=O)c3cc(F)c(F)c(F)c3)c(-c3cc4ccccc4s3)n(CC#N)c2=O)c1 [Compound I-011]	0.01 to 0.1	–	< 0.1	–	–
COc1ccc(Oc2c(Cc3cc(F)c(F)c(F)c3)c(=O)n(-c3cncc(C)c3)c(=O)n2CC#N)cc1 [Compound I-202]	0.037	–	–	0.613	–
CC(=O)Nc1cccc(-c2c(N3CCC(F)(F)CC3)n(CC#N)c(=O)n(-c3cncc(Cl)c3)c2=O)c1 [Compound I-263]	> 0.1	1 to 5	–	–	–
N#CCn1c(N2CC(C(F)(F)F)C2)c(-c2ccc(F)c(Cl)c2)c(=O)n(-c2cncc(F)c2)c1=O [Compound I-295]	< 0.01	< 0.1	–	–	–
N#CCn1c(N2CCC(F)(F)CC2)c(-c2cccc(Cl)c2)c(=O)n(-c2cncc(Cl)c2)c1=O [Compound I-174]	< 0.01	–	–	–	< 0.1
N#CCn1c(N2CC3(C2)CC(F)(F)C3)c(-c2ccc(F)c(Cl)c2)c(=O)n(-c2cncc(OCF)n2)c1=O [Compound I-353]	< 0.01	< 0.1	–	–	–
N#CCn1c(N2CC(O)(c3cnccn3)C2)c(-c2ccc(F)c(Cl)c2)c(=O)n(-c2cncc(Cl)c2)c1=O [Compound I-237]	< 0.01	< 0.1	–	–	–
Cc1cnnc(-n2c(=O)c(Cc3cc(F)c(F)c(F)c3)c(N3Cc4ccccc4C3)n(CC#N)c2=O)c1 [Compound I-039]	< 0.01	–	–	–	< 0.1
CC1(O)CC2(CN(c3c(-c4ccc(F)c(Cl)c4)c(=O)n(-c4cnc5cc(Cl)ccn45)c(=O)n3CC#N)C2)C1 [Compound I-138]	0.01 to 0.1	–	0.1 to 1	–	–
COc1cncc(-n2c(=O)c(-c3ccc(F)c(Cl)c3)c(N3CC4(C3)CC(F)(F)C4)n(CC#N)c2=O)n1 [Compound I-260]	< 0.01	< 0.1	–	–	–
N#CCn1c(N2CC(O)(C(F)F)C2)c(-c2ccc(F)c(Cl)c2)c(=O)n(-c2cncc(OCF)n2)c1=O [Compound I-411]	< 0.01	< 0.1	–	–	–
Cc1ccc(-c2c(-c3ccc(F)c(Cl)c3)c(=O)n(-c3cncc(C)c3)c(=O)n2CC#N)cc1 [Compound I-270]	< 0.01	< 0.1	–	–	–
COCc1c(-c2ccc(F)c(Cl)c2)c(=O)n(-c2cncc(Cl)c2)c(=O)n1CC#N [Compound I-435]	0.01 to 0.1	< 0.1	–	–	–
N#CCn1c(N2CC(O)(C(F)(F)F)C2)c(-c2cc(F)c(F)c(C#N)c2)c(=O)n(-c2cncc(Cl)c2)c1=O [Compound I-367]	< 0.01	< 0.1	–	–	–
Cc1cc(-n2c(=O)c(-c3ccc(F)c(Cl)c3)c(N3CC4(C3)CC(F)(F)C4)n(CC#N)c2=O)[nH]c(=O)c1 [Compound I-221]	> 0.1	1 to 5	–	–	–
N#CCn1c(N2CC3(CCOC3)C2)c(-c2ccc(F)c(Cl)c2)c(=O)n(-c2cncc(Cl)c2)c1=O [Compound I-181]	< 0.01	–	–	–	< 0.1
Cc1cncc(-n2c(=O)c(Cc3cc(F)c(F)c(F)c3)c(-c3ccc(C)c(C)c3)n(CC#N)c2=O)c1 [Compound I-060]	0.0047	–	–	0.019	–
N#CCn1c(N2CC3(C2)CC(F)(F)C3)c(-c2ccc(F)c(Cl)c2)c(=O)n(-c2cc(C(F)(F)F)cnn2)c1=O [Compound I-229]	< 0.01	< 0.1	–	–	–
Cc1cncc(-n2c(=O)c(-c3ccc(F)c(Cl)c3)c(N3CCC(F)(F)CC3)n(CC#N)c2=O)n1 [Compound I-197]	< 0.01	–	–	–	< 0.1
N#CCn1c(C2=CCC2)c(-c2ccc(F)c(Cl)c2)c(=O)n(-c2cncc(Cl)c2)c1=O [Compound I-349]	0.01 to 0.1	< 0.1	–	–	–
N#CCn1c(N2CCC(C(F)F)CC2)c(-c2ccc(F)c(Cl)c2)c(=O)n(-c2cncc(OCF)n2)c1=O [Compound I-422]	< 0.01	< 0.1	–	–	–
C[C@](O)(CCc1c(-c2ccc(F)c(Cl)c2)c(=O)n(-c2cncc(C#N)c2)c(=O)n1CC#N)C(F)F (single isomer, unassigned) [Compound I-429]	< 0.01	< 0.1	–	–	–
Cc1cncc(-n2c(=O)c(Cc3cc(F)c(F)c(F)c3)c(N3CCC(CO)CC3)n(CC#N)c2=O)c1 [Compound I-104]	< 0.01	–	–	–	< 0.1

SMILES	IC50 [1] [µM]	EC50 (SARS-CoV-2; [2]) [µM]	EC50 (SARS-CoV-2; [3]) [µM]	EC50 (SARS-CoV-2; [4]) [µM]	EC50 (SARS-CoV-2; [5]) [µM]
N#CCn1c(CCC2(O)CCC2)c(-c2ccc(F)c(C(F)F)c2)c(=O)n(-c2cncc(Cl)c2)c1=O [Compound I-425]	< 0.01	< 0.1	–	–	–
CC1(O)CC2(CN(c3c(-c4ccc(F)c(Cl)c4)c(=O)n(-c4cnc5cc(F)ccn45)c(=O)n3CC#N)C2)C1 [Compound I-137]	0.01 to 0.1	–	0.1 to 1	–	–
CN1C[C@@H]2CN(c3c(Cc4cc(F)c(F)c(F)c4)c(=O)n(Cc4ncn(C)n4)c(=O)n3CC#N)C[C@@H]2C1 [Compound I-003]	> 0.1	–	–	–	1 to 5
C[C@@H](C#N)n1c(N2CC[C@@](O)(C(F)F)C2)c(-c2ccc(F)c(Cl)c2)c(=O)n(-c2cncc(C#N)c2)c1=O (single isomer, unassigned) [Compound I-433]	< 0.01	< 0.1	–	–	–
N#CCn1c(N2CC(O)(C(F)(F)F)C2)c(-c2ccc(F)c(C#N)c2)c(=O)n(-c2cncc(Cl)c2)c1=O [Compound I-373]	< 0.01	< 0.1	–	–	–
Cc1cc(-n2c(=O)c(-c3ccc(F)c(Cl)c3)c(N3CC4(C3)CC(F)(F)C4)n(CC#N)c2=O)c[n+]([O-])c1 [Compound I-278]	< 0.01	0.1 to 1	–	–	–
Cc1cc(-n2c(=O)c(-c3ccc(F)c(Cl)c3)c(N3C[C@H]4CCCC[C@H]4C3)n(CC#N)c2=O)cc(=O)[nH]1 [Compound I-172]	< 0.01	–	–	–	< 0.1
Cc1cncc(-n2c(=O)c(Cc3cc(F)c(F)c(F)c3)c(N3CC4(CCOC4)C3)n(C(C)C#N)c2=O)c1 (racemic) [Compound I-054]	0.01 to 0.1	–	< 0.1	–	–
Cc1cc(-c2c(N3CCC(F)(F)CC3)n(CC#N)c(=O)n(-c3cncc(Cl)c3)c2=O)cs1 [Compound I-328]	0.01 to 0.1	< 0.1	–	–	–
N#CCn1c(CCC2(O)CCC2)c(-c2ccc(F)c(F)c2)c(=O)n(-c2cncc(Cl)c2)c1=O [Compound I-436]	< 0.01	< 0.1	–	–	–
Cc1coc(-c2c(-c3ccc(F)c(Cl)c3)c(=O)n(-c3cncc(Cl)c3)c(=O)n2CC#N)n1 [Compound I-360]	< 0.01	< 0.1	–	–	–
Cc1cc(-n2c(=O)c(-c3ccc(F)c(Cl)c3)c(-c3ccc(C(F)F)cc3)n(CC#N)c2=O)cc(=O)[nH]1 [Compound I-220]	< 0.01	0.1 to 1	–	–	–
Cc1cncc(-n2c(=O)c(-c3ccc(F)c(Cl)c3)c(N3CC4(C3)CC(F)(F)C4)n(CC#N)c2=O)c1 [Compound I-073]	< 0.01	–	–	–	< 0.1
N#CCn1c(N2CC3(C2)CC(F)(F)C3)c(-c2ccc(F)c(Cl)c2)c(=O)n(-c2cncc(F)c2)c1=O [Compound I-231]	< 0.01	< 0.1	–	–	–
Cc1cncc(-n2c(=O)c(-c3ccc(F)c(Cl)c3)c(N(C)Cc3ccccc3)n(CC#N)c2=O)c1 [Compound I-025]	< 0.01	–	–	–	< 0.1
N#CCn1c(N2CC3(CC3)C2)c(-c2ccc(F)c(Cl)c2)c(=O)n(-c2cnc3cc(Cl)ccn23)c1=O [Compound I-134]	< 0.01	–	–	–	< 0.1
C[C@@](O)(CCc1c(-c2ccc(F)c(Cl)c2)c(=O)n(-c2cncc(Cl)c2)c(=O)n1CC#N)C(F)F (single isomer, unassigned) [Compound I-393]	< 0.01	< 0.1	–	–	–
Cc1cnc(F)c(-n2c(=O)c(-c3ccc(F)c(Cl)c3)c(N3CC4(C3)CC(F)(F)C4)n(CC#N)c2=O)c1 [Compound I-255]	< 0.01	< 0.1	–	–	–
N#CCn1c(N2CC3(C2)CC(F)(F)C3)c(-c2ccc(F)c(Cl)c2)c(=O)n(-c2cc(Cl)cnn2)c1=O [Compound I-214]	< 0.01	< 0.1	–	–	–
CCCCc1c(N2CC3(CCOC3)C2)n(CC#N)c(=O)n(-c2cncc(Cl)c2)c1=O [Compound I-284]	0.01 to 0.1	< 0.1	–	–	–
N#CCn1c(N2CC(O)(c3ncccn3)C2)c(-c2ccc(F)c(Cl)c2)c(=O)n(-c2cncc(C(F)F)n2)c1=O [Compound I-336]	< 0.01	< 0.1	–	–	–
C[C@@H](C#N)n1c(N2CC[C@@](O)(C(F)F)C2)c(-c2ccc(F)c(C(F)F)c2)c(=O)n(-c2cncc(C#N)c2)c1=O (single isomer, unassigned) [Compound I-432]	< 0.01	< 0.1	–	–	–
Cc1cncc(-n2c(=O)c(-c3cc(F)c(F)c(F)c3)c(/C=C/C(C)(C)O)n(CC#N)c2=O)c1 [Compound I-291]	0.01 to 0.1	< 0.1	–	–	–
N#CCn1c(N2CC3(C2)CC(F)(F)C3)c(-c2ccc(F)c(Cl)c2)c(=O)n(-c2onc3cc(F)ccc23)c1=O [Compound I-304]	< 0.01	< 0.1	–	–	–
N#CCn1c(C2CC(F)(F)C2)c(-c2ccc(F)c(Cl)c2)c(=O)n(-c2cncc(Cl)c2)c1=O [Compound I-394]	< 0.01	< 0.1	–	–	–
